Read-outs that look alike come from different tables or passages of the source. Some results are limits rather than exact numbers.

Experiment [1] deals with PTP1B. The settings on record: substrate pNPP; cited from earlier work.
Experiment [2] addresses PTP1B. To be noted: ref Makinen, M. W. and Zhou, K. I., unpublished observations; cited from earlier work.
The target in experiment [3] is T1, soluble portion of human PTP1B (residues 1-321) (Homo sapiens, UniProt P18031).
T1 sequence (P18031 1-321): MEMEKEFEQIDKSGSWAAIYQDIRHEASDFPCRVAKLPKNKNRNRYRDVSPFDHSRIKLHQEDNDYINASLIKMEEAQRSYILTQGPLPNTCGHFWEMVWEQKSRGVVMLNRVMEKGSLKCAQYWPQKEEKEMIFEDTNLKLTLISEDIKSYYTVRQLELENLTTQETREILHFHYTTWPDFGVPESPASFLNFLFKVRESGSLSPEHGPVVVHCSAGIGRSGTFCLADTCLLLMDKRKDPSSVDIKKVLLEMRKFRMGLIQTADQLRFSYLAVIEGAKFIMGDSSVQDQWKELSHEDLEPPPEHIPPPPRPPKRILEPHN
The experiment is described as follows: Steady-state inhibition of PTP1B-catalyzed hydrolysis of pNPP. To be noted: substrate pNPP; for Ki: 0.1 M NaCl, pH 5, 22° C, N2-purged. The class given is biochemical.

Experiment [4] concerns the target T1, soluble portion of human PTP1B (residues 1-321). The format is biochemical.
Experiment [5] concerns fused protein construct of glutathione-S-transferase and the full length PTP1B polypeptide chain (435 residues). The settings on record: substrate pNPP; cited from earlier work.
Experiment [6] concerns PTP1B. To be noted: substrate DADEpYLIPQQG; malachite green, 30 min, not steady-state; cited from earlier work.
Experiment [7] addresses T1, soluble portion of human PTP1B (residues 1-321). The format is biochemical. To be noted: substrate hydrolysis, no inhibitor; this study.
Experiment [8] has as its system Rat PTP1 (residues 1–323). The settings on record: 0.1 M ionic strength, pH 5.5; cited from earlier work.

Take `CCc1oc2cc(S(=O)(=O)Nc3ccc(S(N)(=O)=O)cc3)ccc2c1C(=O)c1cc(Br)c(O)c(Br)c1` [Compound 2, 3-(3,5-dibromo-4-hydroxy-benzoyl)-2-ethyl-benzofuran-6-sulfonic acid (4-sulfamoyl-phenyl)amide]: the mode of inhibition entry in the experiment on PTP1B [1] is recorded as “noncompetitive inhibition”.
By Ki is commonly meant the equilibrium dissociation constant of an inhibitor or competing ligand from its target. As to `CC(=O)/C=C(/C)O` [Mg(acac)2], the Ki on PTP1B [2] was greater than 600 µM.
`CCc1occc(=O)c1[O-].CCc1occc(=O)c1[O-].[O]=[V+2]` [VO(Et-malto)2, bis(2-ethyl-maltolato)oxidovanadium(IV)]: the mode of inhibition result in experiment [3] is reported as “noncompetitive inhibition”; in experiment [4] (substrate EGFR^988-998 (DADEpYLIPQQG)) it was “noncompetitive”. Moreover, the inhibitory constant (Ki) was 14.8 ± 1.4 µM in experiment [3] and 0.14 ± 0.01 µM in experiment [4] (substrate EGFR^988–998, 0.1 M NaCl, pH 6, 20° C, N2-purged).
Consider `Cc1occc(=O)c1[O-].Cc1occc(=O)c1[O-].[O]=[V+2]` [VO(Me-malto)2, bis(2-methyl-maltolato)oxidovanadium(IV)], for which, in experiment [5], the mode of inhibition entry is reported as “mixed inhibition”.
Consider `CC(=O)/C=C(/C)[O-].CC(=O)/C=C(/C)[O-].[O]=[V+2]` [VO(acac)2, bis(acetylacetonato)oxidovanadium(IV)], for which the mode of inhibition result in the experiment with PTP1B [6] was “uncompetitive behavior”.
Consider `Cc1[nH]ccc(=O)c1[O-].Cc1[nH]ccc(=O)c1[O-].[O]=[V+2]` [VO(mpp)2, bis(3-hydroxy-2-methyl-4(1H)pyridinonato)oxidovanadium(IV)], for which, in experiment [3], the mode of inhibition result is given as “competitive inhibition” and the affinity, expressed as Ki, was 38.2 ± 0.5 µM.
The Km is the substrate concentration at which the rate is half of its maximum. Broadly, the kcat is the maximal rate divided by the concentration of active sites. In the case of `O=[N+]([O-])c1ccc(OP(=O)(O)O)cc1` [pNPP, para-nitrophenylphosphate], the Km in experiment [7] was 460 ± 120 µM; in experiment [8] it was 339 ± 16 µM. Besides, the values for the kcat in experiment [7] and in experiment [8] were 62.9 ± 12.0 s⁻¹ and 69.2 ± 1.1 s⁻¹, respectively.

Source of the values: article PMC5671894 (Journal of biological inorganic chemistry : JBIC : a …, 2017).
